One test concerns the target Integrin alpha-IIb/beta-3 (Homo sapiens, UniProt P08514+P05106). Kind of test: Inhibition of platelet aggregation induced by 20 uM adenosine 5'-diphosphate (ADP) in human platelet rich plasma (h-PRP).
Chain of Integrin alpha-IIb/beta-3 (P05106 27-788 limits assumed): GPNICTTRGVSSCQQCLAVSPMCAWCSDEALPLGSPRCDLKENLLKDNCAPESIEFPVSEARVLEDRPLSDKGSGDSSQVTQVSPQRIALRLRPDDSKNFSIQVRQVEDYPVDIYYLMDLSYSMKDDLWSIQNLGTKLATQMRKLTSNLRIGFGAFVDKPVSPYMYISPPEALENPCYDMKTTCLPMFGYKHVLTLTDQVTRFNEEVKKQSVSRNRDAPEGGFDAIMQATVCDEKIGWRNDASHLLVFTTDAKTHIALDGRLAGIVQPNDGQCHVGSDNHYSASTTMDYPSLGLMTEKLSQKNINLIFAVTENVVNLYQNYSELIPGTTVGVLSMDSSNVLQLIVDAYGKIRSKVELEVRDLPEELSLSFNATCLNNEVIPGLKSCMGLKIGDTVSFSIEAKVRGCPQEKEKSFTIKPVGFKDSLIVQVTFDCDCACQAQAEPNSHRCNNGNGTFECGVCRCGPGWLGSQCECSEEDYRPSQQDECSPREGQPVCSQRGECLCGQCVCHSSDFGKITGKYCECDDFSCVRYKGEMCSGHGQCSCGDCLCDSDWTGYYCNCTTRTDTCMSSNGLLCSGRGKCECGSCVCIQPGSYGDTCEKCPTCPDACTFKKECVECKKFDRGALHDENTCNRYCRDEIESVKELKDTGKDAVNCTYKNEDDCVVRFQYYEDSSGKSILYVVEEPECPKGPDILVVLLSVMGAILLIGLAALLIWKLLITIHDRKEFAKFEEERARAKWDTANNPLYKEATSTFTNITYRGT
Chain of Integrin alpha-IIb/beta-3 (P08514 32-887 limits assumed): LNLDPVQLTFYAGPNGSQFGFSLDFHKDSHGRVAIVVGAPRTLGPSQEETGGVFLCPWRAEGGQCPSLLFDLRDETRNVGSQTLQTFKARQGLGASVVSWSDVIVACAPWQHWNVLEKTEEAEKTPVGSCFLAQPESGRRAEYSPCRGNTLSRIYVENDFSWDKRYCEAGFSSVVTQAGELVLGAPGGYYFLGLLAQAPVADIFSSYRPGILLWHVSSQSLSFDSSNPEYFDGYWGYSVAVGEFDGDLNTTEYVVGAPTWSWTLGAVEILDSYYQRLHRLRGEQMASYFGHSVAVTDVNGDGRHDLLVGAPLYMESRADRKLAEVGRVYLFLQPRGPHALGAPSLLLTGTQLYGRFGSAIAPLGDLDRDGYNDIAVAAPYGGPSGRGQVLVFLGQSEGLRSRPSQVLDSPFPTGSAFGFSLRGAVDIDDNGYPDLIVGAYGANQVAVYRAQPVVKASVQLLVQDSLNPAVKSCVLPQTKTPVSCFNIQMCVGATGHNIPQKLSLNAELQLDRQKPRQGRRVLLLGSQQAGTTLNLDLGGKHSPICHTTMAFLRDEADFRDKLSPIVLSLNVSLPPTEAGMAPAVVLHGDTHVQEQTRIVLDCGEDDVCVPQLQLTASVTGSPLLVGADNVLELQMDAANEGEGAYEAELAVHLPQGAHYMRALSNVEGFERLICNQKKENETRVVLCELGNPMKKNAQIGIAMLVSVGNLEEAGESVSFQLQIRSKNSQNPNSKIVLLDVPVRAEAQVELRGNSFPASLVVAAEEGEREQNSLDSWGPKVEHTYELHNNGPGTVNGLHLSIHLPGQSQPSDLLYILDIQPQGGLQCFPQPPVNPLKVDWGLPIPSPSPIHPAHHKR
Chain of Integrin alpha-IIb/beta-3 (P08514 891-1039 limits assumed): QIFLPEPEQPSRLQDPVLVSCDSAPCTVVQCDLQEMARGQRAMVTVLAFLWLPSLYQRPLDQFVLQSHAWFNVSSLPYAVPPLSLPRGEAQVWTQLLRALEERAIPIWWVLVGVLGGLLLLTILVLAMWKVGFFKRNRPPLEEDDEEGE
As for `N=C(N)c1ccc2oc(C(=O)NCCC(=O)NC(CCc3c[nH]c4ccccc34)CC(=O)O)cc2c1` (configuration not stated) [3-{3-[(5-Carbamimidoyl-benzofuran-2-carbonyl)-amino]-propionylamino}-5-(1H-indol-3-yl)-pentanoic acid], the IC50 is 600 nM.
Consider `CCCCS(=O)(=O)N[C@@H](CNC(=O)CCNC(=O)c1cc2cc(C(=N)N)ccc2o1)C(=O)O` [(S)-2-(Butane-1-sulfonylamino)-3-{3-[(5-carbamimidoyl-benzofuran-2-carbonyl)-amino]-propionylamino}-propionic acid], for which the midpoint of inhibition, the IC50, lay at 35 nM.
The same measure, in the same setting: next, `N=C(N)c1ccc2[nH]c(C(=O)NCC(=O)NC(CC(=O)O)c3ccccc3)cc2c1` (configuration not stated) [3-{2-[(5-Carbamimidoyl-1H-indole-2-carbonyl)-amino]-acetylamino}-3-phenyl-propionic acid]: 50000 nM; `N=C(N)c1ccc2oc(C(=O)NCCC(=O)NC(CC(=O)O)c3ccc(F)c(F)c3)cc2c1` (configuration not stated) [3-{3-[(5-Carbamimidoyl-benzofuran-2-carbonyl)-amino]-propionylamino}-3-(3,4-difluoro-phenyl)-propionic acid]: 500 nM.
`N=C(N)c1ccc2oc(C(=O)NCCC(=O)NC(CC(=O)O)c3cccnc3)cc2c1` (configuration not stated) [3-{3-[(5-Carbamimidoyl-benzofuran-2-carbonyl)-amino]-propionylamino}-3-pyridin-3-yl-propionic acid] yielded an IC50 of 200 nM.
On to `N=C(N)c1ccc2cc(C(=O)NCCC(=O)NC(CC(=O)O)c3ccccc3)[nH]c2c1` (configuration not stated) [3-{3-[(6-Carbamimidoyl-1H-indole-2-carbonyl)-amino]-propionylamino}-3-phenyl-propionic acid], for which half-maximal inhibition (IC50) was put at 1350 nM.
Same read-out and setting: next, `CCCCS(=O)(=O)NC(CNC(=O)CCNC(=O)c1[nH]nc2cc(C(=N)N)ccc12)C(=O)O` (configuration not stated) [2-(Butane-1-sulfonylamino)-3-{3-[(6-carbamimidoyl-1H-indazole-3-carbonyl)-amino]-propionylamino}-propionic acid]: 53 nM.
`N=C(N)c1ccc2oc(C(=O)N3Cc4ccccc4CC3C(=O)NC(CC(=O)O)c3ccccc3)cc2c1` (configuration not stated) [3-{[2-(5-Carbamimidoyl-benzofuran-2-carbonyl)-1,2,3,4-tetrahydro-isoquinoline-3-carbonyl]-amino}-3-phenyl-propionic acid] registered a half-inhibitory concentration (IC50) of 5000 nM. This IC50 lies about 94-fold higher than the previous one.
In turn, `N=C(N)c1ccc2[nH]c(C(=O)N3CCC(C(=O)NC(CC(=O)O)c4ccccc4)CC3)cc2c1` (configuration not stated) [3-{[1-(5-Carbamimidoyl-1H-indole-2-carbonyl)-piperidine-4-carbonyl]-amino}-3-phenyl-propionic acid] showed a concentration for half-maximal inhibition (IC50) of 25000 nM.
`N=C(N)c1ccc2[nH]c(C(=O)NC(CC(=O)NC(CC(=O)O)c3ccccc3)C(F)(F)F)cc2c1` (configuration not stated) [3-{3-[(5-Carbamimidoyl-1H-indole-2-carbonyl)-amino]-4,4,4-trifluoro-butyrylamino}-3-phenyl-propionic acid] had an IC50 of 50000 nM. This IC50 is about 2-fold higher than that of the compound before.
`N=C(N)c1ccc2[nH]c(C(=O)NCCC(=O)NC(CC(=O)O)c3ccccc3)cc2c1` (configuration not stated) [3-{3-[(5-Carbamimidoyl-1H-indole-2-carbonyl)-amino]-propionylamino}-3-phenyl-propionic acid] returned an IC50 of 8000 nM.
Take `N=C(N)c1ccc2oc(C(=O)NCCC(=O)NC(CC(=O)O)c3cc(F)ccc3F)cc2c1` (configuration not stated) [3-{3-[(5-Carbamimidoyl-benzofuran-2-carbonyl)-amino]-propionylamino}-3-(2,5-difluoro-phenyl)-propionic acid]: the IC50 turned out to be 300 nM.
`N=C(N)c1ccc2c(C(=O)NCCC(=O)NC(CC(=O)O)c3ccccc3)[nH]nc2c1` (configuration not stated) [3-{3-[(6-Carbamimidoyl-1H-indazole-3-carbonyl)-amino]-propionylamino}-3-phenyl-propionic acid] displayed an IC50 of 630 nM.
Consider `CC(C)(NC(=O)c1cc2cc(C(=N)N)ccc2[nH]1)C(=O)NC(CC(=O)O)c1ccccc1` (configuration not stated) [3-{2-[(5-Carbamimidoyl-1H-indole-2-carbonyl)-amino]-2-methyl-propionylamino}-3-phenyl-propionic acid], for which the IC50 stood at 250000 nM.
The compound `C#CC(CC(=O)O)NC(=O)CCNC(=O)c1cc2cc(C(=N)N)ccc2o1` (configuration not stated) [3-{3-[(5-Carbamimidoyl-benzofuran-2-carbonyl)-amino]-propionylamino}-pent-4-ynoic acid] gave an IC50 of 300 nM.
Same read-out and setting: next, `CN(CCC(=O)NC(CC(=O)O)c1ccccc1)C(=O)c1cc2cc(C(=N)N)ccc2o1` (configuration not stated) [3-{3-[(5-Carbamimidoyl-benzofuran-2-carbonyl)-methyl-amino]-propionylamino}-3-phenyl-propionic acid]: 250 nM.
As for `CN(CCC(=O)NC(CC(=O)O)c1ccccc1)C(=O)c1cc2cc(C(=N)N)ccc2[nH]1` (configuration not stated) [3-{3-[(5-Carbamimidoyl-1H-indole-2-carbonyl)-methyl-amino]-propionylamino}-3-phenyl-propionic acid], 5000 nM corresponded to half-maximal inhibition (IC50). Compared with the last compound, the IC50 is about 20-fold higher.
Regarding `N=C(N)c1ccc2oc(C(=O)N3CCCC(C(=O)NC(CC(=O)O)c4ccccc4)C3)cc2c1` (configuration not stated) [3-{[1-(5-Carbamimidoyl-benzofuran-2-carbonyl)-piperidine-3-carbonyl]-amino}-3-phenyl-propionic acid], the IC50 is 250 nM.
`CC(CC(=O)NC(CC(=O)O)c1ccccc1)NC(=O)c1cc2cc(C(=N)N)ccc2[nH]1` (configuration not stated) [3-{3-[(5-Carbamimidoyl-1H-indole-2-carbonyl)-amino]-butyrylamino}-3-phenyl-propionic acid] yielded an IC50 of 5000 nM. This IC50 is about 20-fold higher than that of the compound before.
The same measure, in the same setting: in the case of `N=C(N)c1ccc2oc(C(=O)NCCC(=O)NC(CC(=O)O)c3cc(F)cc(F)c3)cc2c1` (configuration not stated) [3-{3-[(5-Carbamimidoyl-benzofuran-2-carbonyl)-amino]-propionylamino}-3-(3,5-difluoro-phenyl)-propionic acid] it was 350 nM.
On the same count and under the same terms, next, `CCCCS(=O)(=O)NC(CNC(=O)CCNC(=O)c1cc2ccc(C(=N)N)cc2[nH]1)C(=O)O` (configuration not stated) [2-(Butane-1-sulfonylamino)-3-{3-[(6-carbamimidoyl-1H-indole-2-carbonyl)-amino]-propionylamino}-propionic acid]: 55 nM; `N=C(N)c1ccc2[nH]c(C(=O)N3CCC[C@H]3C(=O)NC(CC(=O)O)c3ccccc3)cc2c1` (stereo partly drawn) [3-{[(S)-1-(5-Carbamimidoyl-1H-indole-2-carbonyl)-pyrrolidine-2-carbonyl]-amino}-3-phenyl-propionic acid]: 5000 nM.
Regarding `CN(CC(=O)NC(CC(=O)O)c1ccccc1)C(=O)c1cc2cc(C(=N)N)ccc2[nH]1` (configuration not stated) [3-{2-[(5-Carbamimidoyl-1H-indole-2-carbonyl)-methyl-amino]-acetylamino}-3-phenyl-propionic acid], half-maximal inhibition (IC50) was put at 25000 nM.
Consider `N=C(N)c1ccc2[nH]c(C(=O)Nc3cccc(C(=O)NC(CC(=O)O)c4ccccc4)c3)cc2c1` (configuration not stated) [3-{3-[(5-Carbamimidoyl-1H-indole-2-carbonyl)-amino]-benzoylamino}-3-phenyl-propionic acid], for which the IC50 was 25000 nM.
Turning to `COc1ccc(C(CC(=O)O)NC(=O)CCNC(=O)c2cc3cc(C(=N)N)ccc3o2)cc1OC` (configuration not stated) [3-{3-[(5-Carbamimidoyl-benzofuran-2-carbonyl)-amino]-propionylamino}-3-(3,4-dimethoxy-phenyl)-propionic acid], the IC50 turned out to be 300 nM. Against the preceding compound, the IC50 is about 83-fold lower.
On to `N=C(N)c1ccc2oc(C(=O)NCCC(=O)NC(CC(=O)O)c3ccccc3)cc2c1` (configuration not stated) [3-{3-[(5-Carbamimidoyl-benzofuran-2-carbonyl)-amino]-propionylamino}-3-phenyl-propionic acid], for which inhibition was half-maximal at 250 nM (IC50).
As to `N=C(N)c1ccc2oc(C(=O)NCCC(=O)NC(CC(=O)O)C(F)(F)F)cc2c1` (configuration not stated) [3-{3-[(5-Carbamimidoyl-benzofuran-2-carbonyl)-amino]-propionylamino}-4,4,4-trifluoro-butyric acid], the midpoint of inhibition, the IC50, lay at 250 nM.
As for `N=C(N)c1ccc2oc(C(=O)NCCC(=O)NC[C@H](N)C(=O)O)cc2c1` [(S)-2-Amino-3-{3-[(5-carbamimidoyl-benzofuran-2-carbonyl)-amino]-propionylamino}-propionic acid], the half-inhibitory concentration (IC50) stood at 200 nM.
In the case of `N=C(N)c1ccc2oc(C(=O)N3CCC[C@@H]3C(=O)NC(CC(=O)O)c3ccccc3)cc2c1` (stereo partly drawn) [3-{[(R)-1-(5-Carbamimidoyl-benzofuran-2-carbonyl)-pyrrolidine-2-carbonyl]-amino}-3-phenyl-propionic acid], the IC50 turned out to be 2000 nM.
In the case of `N=C(N)c1ccc2c(C(=O)NCCC(=O)NC(CC(=O)O)c3ccccc3)c[nH]c2c1` (configuration not stated) [3-{3-[(6-Carbamimidoyl-1H-indole-3-carbonyl)-amino]-propionylamino}-3-phenyl-propionic acid], 2200 nM corresponded to half-maximal inhibition (IC50).

Target in another test: not listed separately
The experiment in a line: Inhibition of 20 uM ADP-induced platelet aggregation in human platelet-rich plasma.
In the case of `N=C(N)c1ccc2oc(C(=O)NCCC(=O)NC[C@H](NS(=O)(=O)c3ccc(I)cc3)C(=O)O)cc2c1` [(S)-3-{3-[(5-Carbamimidoyl-benzofuran-2-carbonyl)-amino]-propionylamino}-2-(4-iodo-benzenesulfonylamino)-propionic acid], the IC50 amounted to 25 nM.
On the same count and under the same terms, next, `CN(C)c1cccc2c(S(=O)(=O)N[C@@H](CNC(=O)CCNC(=O)c3cc4cc(C(=N)N)ccc4o3)C(=O)O)cccc12` [(S)-3-{3-[(5-Carbamimidoyl-benzofuran-2-carbonyl)-amino]-propionylamino}-2-(5-dimethylamino-naphthalene-1-sulfonylamino)-propionic acid]: 65 nM.

These data come from BindingDB's records for doi:10.1021/jm9704863 (Cor Therapeutics, 1998).
